Where two headings read alike, the source gives them in different places.

The target of experiment [1] is T1, HsNMT Isoform 1 (Homo sapiens, UniProt P30419).
T1 sequence (P30419 1-496): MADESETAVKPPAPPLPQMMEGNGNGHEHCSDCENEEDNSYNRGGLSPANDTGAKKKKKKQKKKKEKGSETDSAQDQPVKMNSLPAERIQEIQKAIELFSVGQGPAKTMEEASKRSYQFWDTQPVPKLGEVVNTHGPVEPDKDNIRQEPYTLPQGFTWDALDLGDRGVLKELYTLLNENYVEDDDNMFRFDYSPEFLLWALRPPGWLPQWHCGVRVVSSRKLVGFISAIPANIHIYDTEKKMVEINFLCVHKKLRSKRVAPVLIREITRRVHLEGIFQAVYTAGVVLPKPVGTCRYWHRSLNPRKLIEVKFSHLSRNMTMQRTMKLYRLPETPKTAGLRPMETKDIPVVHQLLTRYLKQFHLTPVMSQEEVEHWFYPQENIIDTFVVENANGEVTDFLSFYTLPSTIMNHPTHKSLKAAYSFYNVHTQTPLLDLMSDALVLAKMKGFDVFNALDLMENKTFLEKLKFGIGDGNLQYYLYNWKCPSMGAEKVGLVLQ
The experiment can be described thus: NMT activity assay (CPM fluorescence detection of free CoA), HsNMT.

Experiment [2] has as its target T2, PvNMT (Plasmodium vivax, UniProt A5K1A2). The experiment can be described thus: NMT activity assay (CPM fluorescence detection of free CoA), PvNMT.
Experiment [3] concerns the target T2, PvNMT. Particulars: cited from earlier work.
Experiment [4] concerns HsNMT1/2. Also on record: method as in PMID 29760414. The note with it: cited from earlier work.

T2 sequence (A5K1A2 entry or part of it): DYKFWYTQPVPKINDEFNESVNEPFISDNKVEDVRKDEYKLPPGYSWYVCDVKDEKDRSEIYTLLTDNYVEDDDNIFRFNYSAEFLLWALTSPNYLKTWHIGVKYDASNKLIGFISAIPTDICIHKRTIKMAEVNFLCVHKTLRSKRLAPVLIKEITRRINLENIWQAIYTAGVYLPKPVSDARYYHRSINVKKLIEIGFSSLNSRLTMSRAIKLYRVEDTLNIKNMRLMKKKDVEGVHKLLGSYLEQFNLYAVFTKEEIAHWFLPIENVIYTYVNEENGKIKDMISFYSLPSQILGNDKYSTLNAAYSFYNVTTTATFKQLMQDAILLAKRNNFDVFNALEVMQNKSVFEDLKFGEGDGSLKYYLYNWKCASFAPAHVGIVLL

On to `Cc1c(CCOc2ccccc2-c2ccnc(N3CCNCC3)c2)c(C(=O)Nc2cccnc2)nn1C` [Compound 8a, 1,5-Dimethyl-4-(2-(2-(2-(piperazin-1-yl)pyridin-4-yl)phenoxy)ethyl)-N-(pyridin-3-yl)-1H-pyrazole-3-carboxamide], for which the IC50 (commonly the concentration that gives 50% inhibition) is 2520 nM in experiment [1] and 506 nM in experiment [2]. The matching figures for `Cc1c(CCOc2ccccc2-c2ccnc(N3CCNCC3)c2)c(C(=O)N2CCOCC2)nn1C` [Compound 8b, (1,5-Dimethyl-4-(2-(2-(2-(piperazin-1-yl)pyridin-4-yl)phenoxy)ethyl)-1H-pyrazol-3-yl)(morpholino)methanone]: 763 nM and 24 nM. The matching figures for `Cc1c(CCOc2ccccc2-c2ccnc(N3CCNCC3)c2)c(C(=O)NCC(=O)O)nn1C` [Compound 8c, (1,5-Dimethyl-4-(2-(2-(2-(piperazin-1-yl)pyridin-4-yl)phenoxy)ethyl)-1H-pyrazole-3-carbonyl)glycine]: 116 nM and 147 nM. Take `Cc1c(CCOc2ccccc2-c2ccnc(N3CCNCC3)c2)c(C(=O)NCCN)nn1C` [Compound 8f, N-(2-Aminoethyl)-1,5-dimethyl-4-(2-(2-(2-(piperazin-1-yl)pyridin-4-yl)phenoxy)ethyl)-1H-pyrazole-3-carboxamide]: the concentration for half-maximal inhibition (IC50) in experiment [1] came to 103 nM; in experiment [2], 89 nM.

With `CC(=O)CNC(=O)c1nn(C)c(C)c1CCOc1ccccc1-c1ccnc(N2CCNCC2)c1` [Compound 8g, 1,5-Dimethyl-N-(2-oxopropyl)-4-(2-(2-(2-(piperazin-1-yl)pyridin-4-yl)phenoxy)ethyl)-1H-pyrazole-3-carboxamide], the results for the IC50 in experiment [1] and in experiment [2] were 1590 nM and 32 nM, respectively. In experiment [2] (calculated as HsNMT IC50/PvNMT IC50), the “SI (enzyme selectivity)” value is recorded as above 31.

In the case of `Cc1c(CCOc2ccccc2-c2ccnc(N3CCNCC3)c2)c(C(=O)NCCO)nn1C` [Compound 8h, N-(2-Hydroxyethyl)-1,5-dimethyl-4-(2-(2-(2-(piperazin-1-yl)pyridin-4-yl)phenoxy)ethyl)-1H-pyrazole-3-carboxamide], the half-maximal inhibitory concentration (IC50) worked out at 504 nM in experiment [1] and 39 nM in experiment [2]. The matching figures for `COC(=O)CNC(=O)c1nn(C)c(C)c1CCOc1ccccc1-c1ccnc(N2CCNCC2)c1` [Compound 8i, Methyl (1,5-Dimethyl-4-(2-(2-(2-(piperazin-1-yl)pyridin-4-yl)phenoxy)ethyl)-1H-pyrazole-3-carbonyl)glycinate]: 57 nM and 20 nM. Take `Cc1c(CCOc2cccnc2-c2ccnc(N3CCNCC3)c2)c(C(=O)Nc2cccnc2)nn1C` [Compound 9a, 1,5-Dimethyl-4-(2-((2′-(piperazin-1-yl)-[2,4′-bipyridin]-3-yl)oxy)ethyl)-N-(pyridin-3-yl)-1H-pyrazole-3-carboxamide]: the midpoint of inhibition in experiment [2], the IC50, lay at 1020 nM.

As for `Cc1c(CCOc2cccnc2-c2ccnc(N3CCNCC3)c2)c(C(=O)N2CCOCC2)nn1C` [Compound 9b, (1,5-Dimethyl-4-(2-((2′-(piperazin-1-yl)-[2,4′-bipyridin]-3-yl)oxy)ethyl)-1H-pyrazol-3-yl)(morpholino)methanone], the IC50 in experiment [1] came out at 1650 nM; in experiment [2], 46 nM. The matching figures for `Cc1c(CCOc2cccnc2-c2ccnc(N3CCNCC3)c2)c(C(=O)NCC(=O)O)nn1C` [Compound 9c, (1,5-Dimethyl-4-(2-((2′-(piperazin-1-yl)-[2,4′-bipyridin]-3-yl)oxy)ethyl)-1H-pyrazole-3-carbonyl)glycine]: 11100 nM and 230 nM. As to `Cc1c(CCOc2cccnc2-c2ccnc(N3CCNCC3)c2)c(C(=O)NCC(N)=O)nn1C` [Compound 9d, N-(2-Amino-2-oxoethyl)-1,5-dimethyl-4-(2-((2′-(piperazin-1-yl)-[2,4′-bipyridin]-3-yl)oxy)ethyl)-1H-pyrazole-3-carboxamide], the results for the IC50 in experiment [1] and in experiment [2] were 11000 nM and 181 nM, respectively. Turning to `Cc1c(CCOc2ccc3ccccc3c2-c2ccnc(N3CCNCC3)c2)c(C(=O)Nc2cccnc2)nn1C` [Compound 10a, 1,5-Dimethyl-4-(2-((1-(2-(piperazin-1-yl)pyridin-4-yl)naphthalen-2-yl)oxy)ethyl)-N-(pyridin-3-yl)-1H-pyrazole-3-carboxamide], the midpoint of inhibition in experiment [2], the IC50, lay at 5070 nM. With `Cc1c(CCOc2ccc3ccccc3c2-c2ccnc(N3CCNCC3)c2)c(C(=O)N2CCOCC2)nn1C` [Compound 10b, (1,5-Dimethyl-4-(2-((1-(2-(piperazin-1-yl)pyridin-4-yl)naphthalen-2-yl)oxy)ethyl)-1H-pyrazol-3-yl)(morpholino)methanone], the IC50 in experiment [1] was 11400 nM; in experiment [2], 91 nM.

The molecule `Cc1c(CCOc2ccc3ccccc3c2-c2ccnc(N3CCNCC3)c2)c(C(=O)NCC(=O)O)nn1C` [Compound 10c, (1,5-Dimethyl-4-(2-((1-(2-(piperazin-1-yl)pyridin-4-yl)naphthalen-2-yl)oxy)ethyl)-1H-pyrazole-3-carbonyl)glycine] registered an IC50 in experiment [2] of 1060 nM. The same measure, in the same setting: to `Cc1c(CCOc2ccc3ccccc3c2-c2ccnc(N3CCNCC3)c2)c(C(=O)NCC(N)=O)nn1C` [Compound 10d, N-(2-Amino-2-oxoethyl)-1,5-dimethyl-4-(2-((1-(2-(piperazin-1-yl)pyridin-4-yl)naphthalen-2-yl)oxy)ethyl)-1H-pyrazole-3-carboxamide] belongs 1000 nM. On to `Cc1nn(C)c(C)c1CCOc1cc(F)ccc1-c1ccc2c(c1)c(CN(C)C)nn2C` [IMP-1002], for which the IC50 in experiment [3] is 3 nM.

Regarding `Cc1nn(C)c(C)c1CCOc1c(-c2ccc3c(c2)c(CN(C)C)nn3C)ccc(F)c1F` [IMP-1088], the “HsNMT1/2 IC50” value in experiment [4] was “picomolar”.

These data come from publication PMC11089503, “Exploring Subsite Selectivity within Plasmodium vivaxN-Myristoyltransferase Using Pyrazole-Derived Inhibitors” (Journal of Medicinal Chemistry, 2024).
